Reference: US20070015817A1, “4-((4-(2-pyrrolidinylethoxy)phenyl)methyl)-3-(4-(trifluoromethyl)phenyl)-7-hydroxychromen-2one, pharmaceutically acceptable salts thereof and methods of use therewith” (priority 2002, published 2007)

Tests used:
Format in all cases: cell-based
[1] = system: BG-1 ovarian carcinoma cells; assay: Inhibition of BG-1 ovarian carcinoma cell proliferation; settings: 0.1 nM 17β-estradiol-dependent growth, 72 h, 3H-thymidine incorporation
Description: BG-1 cells serve as a useful in vitro model for the evaluation of the effects of antiestrogenic compounds on ovarian tumor growth (Greenberger, L. M. et. al., Clin. Cancer Res. 7:3166-3177, 2001). Benzopyranone compounds having an IC50<100 nM are particularly useful as anti-ovarian cancer agents in vivo.
BG-1 ovarian carcinoma cells were plated in 24-well dishes at a density of 5×10^3 cells/well in phenol-red free DMEM:F-12 (1:1) medium containing 1% antibiotics, 0.05% mercaptoethanol, 0.01% ethanolamine, 0.42 ng/mL sodium selenite and 5% charcoal-stripped FCS. Illustrative benzopyranone compounds (0.1-1000 nM in 0.2% DMSO) and 0.1 nM 17β-estradiol were added to the cultured BG-1 ovarian carcinoma cells and incubated for 72 h. Subsequently, ^3H-labeled thymidine was added and its incorporation into cells was measured following 4h incubation. The results are expressed as IC50 (nM) values (Table 2) which is the concentration of the benzopyranone compound necessary to inhibit the growth of BG-1 ovarian carcinoma cells by 50% relative to controls.

[2] = system: IL-6 release from human U-2 OS osteosarcoma cells stably transfected with human ER-α; assay: Inhibition of IL-6 release; settings: U2OS; U-2 OS cells transfected with human ER-α, stimulated with 2.5 ng/ml TNFα and 1 ng/ml IL-1, IL-6 by ELISA after 24 h, relative to vehicle
Description: Illustrative benzopyranone compounds were tested for their ability to inhibit IL-6 release from human U-2 OS osteosarcoma cells stably transfected with human ER-α. (Stein, B.; Yang, M. X. Mol. Cell. Biol 15: 4971-4979, 1995; Poli, V. et. al., EMBO J. 13:1189-1196, 1994). […] Benzopyranone compounds having an IC50<100 nM are particularly useful as bone resorption inhibitors in vivo. Accordingly, the compounds of this assay, illustrative benzopyranone compounds, are particularly useful for the treatment of osteoporosis, Paget's disease and metastatic bone cancer. These compounds are also useful as anti-cancer agents as elevated IL-6 levels are responsible for certain cancers such as multiple myeloma, prostate cancer, ovarian cancer, renal carcinoma and cervical carcinoma.
Human U-2 OS osteosarcoma cells (ATCC) were stably transfected with expression vectors for human full-length ER-α using standard molecular biology techniques. Stable subclones were generated that expressed high levels of ER-α mRNA. The expression of ER-α was confirmed using RNase protection analysis.
Cells were plated into 96-well plates at a density of 80,000 cells per well in phenol red-free media with charcoal-stripped fetal calf serum. Twenty four hours later, cells were either treated with vehicle (0.2% DMSO) or test compound (0.01 B 100 nm in 0.2% DMSO). Thirty minutes later cells were stimulated with 2.5 ng/ml TNFα and 1 ng/ml IL-1. Twenty-four hours later the media supernatant was analyzed for cytokine production (IL-6) using commercially available ELISA kits following the manufacturer=s instructions. Cytokine production in the presence of vehicle (0.2% DMSO) was set to 100%. The results are expressed as IC50 (nM) values (Table 2) which is the concentration of the benzopyranone compound necessary to inhibit the production of IL-6 50% relative to the amount of IL-6 produced in the presence of vehicle.

[3] = system: MCF-7 breast cancer cells; assay: Inhibition of MCF-7 breast cancer cell proliferation; settings: Homo sapiens, MCF7; 0.1 nM 17β-estradiol-dependent growth, 72 h, 3H-thymidine incorporation
Description: MCF-7 cells represent an excellent in vitro system to study the effects of compounds on estrogen-dependent breast cancer growth. (May, F.E.B.; Westley, B. R. J. Biol. Chem. 262:15894-15899, 1987). Benzopyranone compounds having an IC50<100 nM are particularly useful as anti-breast cancer agents in vivo.
MCF-7 breast carcinoma cells were plated in 24-well dishes at a density of 5×10^3 cells/well in phenol-red free DMEM:F-12 (1:1) medium containing 1% antibiotics, 0.05% mercaptoethanol, 0.01% ethanolamine, 0.42 ng/mL sodium selenite and 5% charcoal-stripped FCS.
Illustrative benzopyranone compounds (0.1-1000 nM in 0.2% DMSO) and 0.1 nM 17β-estradiol were added to the cultured MCF-7 breast cancer cells for 72 h. Subsequently, 3H-labeled thymidine was added and its incorporation into cells was measured following 4h incubation. The results are expressed as IC50 (nM) values (Table 2) which is the concentration of the benzopyranone compound necessary to inhibit the growth of MCF-7 breast cancer cells by 50% relative to controls.

Compound | IC50 [1] [nM] | IC50 [2] [nM] | IC50 [3] [nM]
O=c1oc2cc(O)ccc2c(Cc2ccc(OCCN3CCCC3)cc2)c1-c1ccc(C(F)(F)F)cc1 | 13.6 | 1.5 | 13.6
O=c1oc2cc(O)ccc2c(Cc2ccc(OCCN3CCCC3)cc2)c1-c1ccc(C(F)(F)F)cc1Cl | 4.65 | 0.5 | 4.5
O=c1oc2cc(O)ccc2c(Cc2ccc(OCCN3CCCC3)cc2)c1-c1ccc(Cl)cc1 | 5.8 | 0.4 | 26
O=c1oc2cc(O)ccc2c(Cc2ccc(OCCN3CCCC3)cc2)c1-c1ccc(Cl)cc1Cl | 1.4 | 0.29 | 6.5
O=c1oc2cc(O)ccc2c(Cc2ccc(OCCN3CCCC3)cc2)c1-c1ccc(Cl)cc1C(F)(F)F | 2.3 | 0.4 | 3
O=c1oc2cc(O)ccc2c(Cc2ccc(OCCN3CCCC3)cc2)c1-c1ccc(C(F)(F)F)cc1C(F)(F)F | 5.5 | 1 | 26
